The record followed here is patent US20250244312A1, “EX VIVO COLONIC BIOPSY PLATFORM TO EVALUATE MULTI-OMIC SIGNATURES FOR SCREENING CANDIDATE THERAPEUTICS” (Athos Therapeutics, Inc., priority 2020, published 2025).

What all share (type): cell-based, human
Series [1] concerns TNFA. Description: TNFA level in supernatant of colonic explant culture (ELISA), ex vivo biopsy high throughput platform. The following applies: 12 h; for TNFA levels / effectiveness at reducing TNFA levels, compared with the other inhibitors: 10 uM; for TNFA levels: supernatant of UC active disease colonic biopsy replicate, vs untreated control well; for effectiveness at reducing TNFA levels, compared with the other inhibitors: UC colonic explant. As for the experimental part: (§1) Step 1: A biopsy was obtained from a macroscopically disease area of the inflammatory intestinal mucosa of an IBD patient. Samples can be from small or large intestine and the patient can be afflicted with, or suspected of having, UC or CD. The medium used to transport mucosal colonic biopsies from IBD patients was pre-cooled on ice, and comprised: Dulbecco's Modified Eagle Medium (DMEM) liquid (High Glucose), 4 mM L-alanyl-L-glutamine dipeptide, 1% penicillin/streptomycin and […] gentamicin. Tissue culture was initiated less than 1 hour after collection.
(§2) Step 2: Once in the laboratory, the biopsy was washed in Hank's Balanced Salt Solution buffer for a few minutes (e.g., 2-5 min) and cut with sterile scalpels to create biopsy pieces (approximately 2-5 um sections). Media comprising Dulbecco's Modified Eagle Medium (DMEM) liquid (High Glucose), 4 mM L-alanyl-L-glutamine dipeptide, 1% FBS, 1% non-essential amino acids, 1% Sodium Pyruvate, 1% penicillin/streptomycin, […] gentamicin and 5 ug/ml insulin-transferrin-selenium-X, was pre-warmed at 37° C. and added to the pieces of the biopsy. The average volume of media for each biopsy was 1.5 mL, which allows generation of 10 replicates in a 96 well plate (150 uL/well) or 60 replicates in a 384 well plate (25 uL/well). The plates then were cultured in a humidified chamber with 95% O2 and 5% CO2. The 96-and 384-well plates are two non-limiting embodiments of the platform assay disclosed herein, though additional embodiments of the high throughput platform disclosed herein can be used to predict drug responses by evaluating multi-omic signatures in other multi-well formats.
(§3) An embodiment of the ex vivo biopsy high throughput platform was used to assess the effects of G9A inhibitors BIX01294 (cat. No 3364, Tocris) and UNC0642 (cat. No 5132, Tocris), JMJD3 inhibitors GSK-J4 (cat. No 4594, Tocris) and JIB-04 (cat. No 4972, Tocris), and an EZH2 inhibitor UNC1999 (cat. No 4904, Tocris) (10 uM) on a multi-omic response, evaluating cytokine production levels and global chromatin H3K9me2 and H3K27me3 levels in UC active disease colonic explants.
(§4) Specifically, a UC active disease colonic biopsy was processed as described in Example 1 and separated into 6 replicates in a 96-well plate. One well was used as control and the rest were treated with each compound at the concentration of 10 uM. Twelve hours later, 50 uL of supernatant was collected to evaluate IL-1B (#KHC0011, ThermoFisher) and TNFA levels (#BMS223HS, ThermoFisher); meanwhile, the tissue pellet was also collected and processed to check H3K9me2 (#P-3032, Epigentek) and H3K27me3 (#P-3020,Epigentek) levels by ELISA assay.
(§5) The biopsy was processed as described in Example 1. Briefly, one well was used as control and treated with RNA-negative control (miR-NC, cat no. YI00199006, Qiagen) (1 uM), a second well was treated with the miR-24-A inhibitor (1 uM), and a third well was treated with miR-24-B inhibitor (1 uM). 50 uL of supernatant was collected to evaluate IL1B and TNFA levels and tissue pellet was collected and processed for RNA extraction (miRNeasy Kit, Qiagen). MicroRNA LNA miRNA PCR assays (Qiagen) were performed for miR-24-3p (cat.no YP00204260, Qiagen).
On the technique in general: ELISA stands for enzyme-linked immunosorbent assay.

The test system of series [2] is miR-24-3p. Description: miR-24-3p expression in UC colonic explant culture (LNA miRNA PCR assay). To be noted: 1 uM, 12 h, UC colonic explant tissue pellet. As for the experimental part:
as §1
as §2, with “The 96-and 384-well plates are two non-limiting embodiments of the platform assay disclosed herein, though additional embodiments of the high throughput platform disclosed herein can be used to predict drug responses by evaluating multi-omic signatures in other multi-well formats.” left out

For series [3], the system named is IL-1B. Nature of the series: IL-1B level in supernatant of colonic explant culture (ELISA), ex vivo biopsy high throughput platform. The following applies: 12 h; for IL-1B levels / effectiveness at reducing IL1B levels, compared with the other inhibitors: 10 uM; for IL-1B levels: supernatant of UC active disease colonic biopsy replicate, vs untreated control well; for effectiveness at reducing IL1B levels, compared with the other inhibitors: UC colonic explant. As for the experimental part:
as §1, §2, §3, §4, §5

Series [4] deals with H3K9me2. Description: Global chromatin H3K9me2 level in colonic explant tissue pellet (ELISA). To be noted: 10 uM, 12 h, tissue pellet of UC colonic explant. As for the experimental part: as §1
as §2, with “The 96-and 384-well plates are two non-limiting embodiments of the platform assay disclosed herein, though additional embodiments of the high throughput platform disclosed herein can be used to predict drug responses by evaluating multi-omic signatures in other multi-well formats.” left out

For series [5], the system named is H3K27me3. Nature of the series: Global chromatin H3K27me3 level in colonic explant tissue pellet (ELISA). The following applies: 10 uM, 12 h, tissue pellet of UC colonic explant. As for the experimental part:
as §1
as §2, with “formats. […]” for “formats.”

The subject of series [6] is IBD colonic explants. Nature of the series: Cell viability of colonic explants (CellTiter-Blue assay). As for the experimental part:
as §1
Step 3: Cell viability evaluation. To evaluate the effects of any drug using a colonic explant assay, the viability of the colonic explant in culture is examined. The experimental conditions related to the culture viability of the colonic explants were optimized by focusing on the media composition during the transfer of the biopsy from the patient biopsy collection site to the laboratory and the duration of culturing the explant.
CellTiter-Blue assay (Promega) was used to evaluate cell viability of the colonic explants. Briefly, the CellTiter-Blue reagent was added in the culture and the fluorescent signal was measured (560/590 nm) after 1 h of incubation in 37° C. […]
On the technique in general: Resazurin is reduced to fluorescent resorufin, in cell work by metabolically active cells.

Where [7] appears, read: 1 uM, UC colonic explant supernatant, control miR-NC.

Peptide text beside a SMILES is read from it. l = locked nucleic acid (LNA); [5mC] = 5-methylcytosine; d = 2'-deoxy (DNA)

For “5-CTG^mCTGAA^mCTGAG^mCCA-3 (antisense CTGCTGAACTGAGCCA; sugars from the 5' end l3 d6 l2 d3 l2, [5mC] at 4, 9, 14, all phosphorothioate, methylation of C not given here) [miR-24-A, antisense-miR-24-3p compound; phosphorothioate linkages bases 1-16, LNA at bases 1-3, 10-11, 15-16,5-methylcytosine at positions 4,9, 14]”, the “reducing TNFA levels, compared to miR-24-B inhibitor” value in series [1] (setting [7]) is on record as “more effective”. In series [2], the “miR-24-3p expression levels, compared to miR-24-B inhibitor” value is on record as “more effectively suppressed”. In series [3] (setting [7]), the “reducing IL1B levels, compared to miR-24-B inhibitor” value was “more effective”.

As to `COc1cc2nc(N3CCCN(C)CC3)nc(NC3CCN(Cc4ccccc4)CC3)c2cc1OC` [BIX01294], the H3K9me2 levels result in series [4] is “reduced”. The TNFA levels result in series [1] is reported as “reduced”. Also, the IL-1B levels result in series [3] is listed as “reduced”.

As to `CCOC(=O)CCNc1cc(N2CCc3ccccc3CC2)nc(-c2ccccn2)n1` [GSK-J4], in series [1], the “effectiveness at reducing TNFA levels, compared with the other inhibitors” value was “more effective than BIX01294 and JIB-04”; the TNFA levels entry is reported as “reduced”. Moreover, the H3K27me3 levels result in series [5] is listed as “increased”. Further, in series [3], the “effectiveness at reducing IL1B levels, compared with the other inhibitors” value is “more effective than BIX01294 and JIB-04”; the IL-1B levels result is listed as “reduced”.

`Clc1ccc(N/N=C(\c2ccccc2)c2ccccn2)nc1` [JIB-04]: in series [1], the TNFA levels entry was “reduced”. For the same compound, the H3K27me3 levels entry in series [5] is “increased”. In addition, the IL-1B levels result in series [3] was “reduced”.

`C[C@H](N)C(=O)N[C@@H](CCC(N)=O)C(=O)O` [L-alanyl-L-glutamine dipeptide] (H-Ala-Gln-OH): the “cell viability of colonic explants” value in series [6] (added to the transfer media (DMEM, penicillin/streptomycin, gentamicin)) is “substantial increase in cell viability”. Moreover, the “concentration identified to have the highest cell viability” value in series [6] (in transfer media) turned out to be 4 mM.

In the case of `COc1cc2c(NC3CCN(C(C)C)CC3)nc(N3CCC(F)(F)CC3)nc2cc1OCCCN1CCCC1` [UNC0642], the H3K9me2 levels entry in series [4] is reported as “reduced”. In series [1], the “effectiveness at reducing TNFA levels, compared with the other inhibitors” value was “more effective than BIX01294 and JIB-04”; the TNFA levels entry is “reduced”. Besides, in series [3], the “effectiveness at reducing IL1B levels, compared with the other inhibitors” value is “more effective than BIX01294 and JIB-04”; the IL-1B levels result is on record as “reduced”.

As for `CCCc1cc(C)[nH]c(=O)c1CNC(=O)c1cc(-c2ccc(N3CCN(C(C)C)CC3)nc2)cc2c1cnn2C(C)C` [UNC1999], in series [1], the TNFA levels result is reported as “increased”. Also, the H3K27me3 levels result in series [5] is “reduced”. In series [3], the IL-1B levels entry was “increased”.
